Laboratory results reported in patent publication US10770169B2, “Method of providing a treatment to a subject based on a dynamic pathway map” (THE REGENTS OF THE UNIVERSITY OF CALIFORNIA, priority 2010, dated 2020).
Read-outs that look alike come from different tables or passages of the source.

Assays:
[1] = test system: luminal, basal, claudin-low and ERBB2AMP breast cancer cell lines; assay: Associations of clinically relevant subtypes and response (non-parametric ANOVA or t-test on GI50 ranks); assay type: cell-based, human; conditions: Table 6; most sensitive subtype, FDR p<0.20
Method in brief: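 Significance was set at FDR p<0.20 after combining p-values across three test sets. Subtype–response associations came from rank-based non-parametric ANOVA or t-tests on GI50. For three-class comparisons, post-hoc tests of each group against the rest identified the most sensitive group, with FDR correction.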

[2] = test system: panel of 55 breast cancer cell lines; assay: Cell growth inhibition assay (Cell Titer Glo, 72 h, 9 doses; GI50, TGI, LC50); assay type: cell-based, human; conditions: Homo sapiens, read-out: GI50 (converted)
[3] = 600MPE cell line, censored GI50 values
[4] = AU565, AU565 cell line, censored GI50 values
[5] = BT-20, BT20 cell line, censored GI50 values
[6] = BT-474, BT474 cell line, censored GI50 values
[7] = BT-483, BT483 cell line, censored GI50 values
[8] = CAMA-1, CAMA1 cell line, censored GI50 values
[9] = HCC38, HCC38 cell line, censored GI50 values
[10] = HCC70, HCC70 cell line, censored GI50 values
[11] = HCC1143, HCC1143 cell line, censored GI50 values
[12] = HCC1187, HCC1187 cell line, censored GI50 values
[13] = HCC1419, HCC1419 cell line, censored GI50 values
[14] = HCC1428, HCC1428 cell line, censored GI50 values
[15] = HCC1500, HCC1500 cell line, censored GI50 values
[16] = HCC1806, HCC1806 cell line, censored GI50 values
[17] = HCC1937, HCC1937 cell line, censored GI50 values
[18] = HCC1954, HCC1954 cell line, censored GI50 values
[19] = HCC2185 cell line, censored GI50 values
[20] = HCC3153 cell line, censored GI50 values
[21] = MCF7, MCF7 cell line, censored GI50 values
[22] = MDA-MB-134-VI, MDAMB134VI cell line, censored GI50 values
[23] = MDA-MB-175-VII, MDAMB175VII cell line, censored GI50 values
[24] = MDA-MB-361, MDAMB361 cell line, censored GI50 values
[25] = MDA-MB-415, MDAMB415 cell line, censored GI50 values
[26] = MDA-MB-436, MDAMB436 cell line, censored GI50 values
[27] = MDA-MB-453, MDAMB453 cell line, censored GI50 values
[28] = MDA-MB-468, MDAMB468 cell line, censored GI50 values
[29] = SK-BR-3, SKBR3 cell line, censored GI50 values
[30] = SUM52PE, SUM52PE cell line, censored GI50 values
[31] = SUM149PT, SUM149PT cell line, censored GI50 values
[32] = SUM185PE, SUM185PE cell line, censored GI50 values
[33] = SUM1315MO2, SUM1315MO2 cell line, censored GI50 values
[34] = SUM-159-PT, SUM159PT cell line, censored GI50 values
[35] = T47D, T47D cell line, censored GI50 values
[36] = UACC-812, UACC812 cell line, censored GI50 values
[37] = ZR-75-1, ZR751 cell line, censored GI50 values
[38] = ZR-75B, ZR75B cell line, censored GI50 values

## Cc1[nH]c2ccccc2c1CCNCc1ccc(/C=C/C(=O)NO)cc1 [LBH589]
[1]
  Subtype specificity: Luminal
[2]; [3]
  GI50: 186 nM
[2]; [4]
  GI50: 105 nM
[2]; AU565, cell line AU565
  GI50: 105 nM
[2]; [5]
  GI50: 389 nM
[2]; BT-20, cell line BT20
  GI50: 389 nM
[2]; [6]
  GI50: 34.7 nM
[2]; BT-474, cell line BT474
  GI50: 34.7 nM
[2]; [7]
  GI50: 72.4 nM
[2]; BT-483, cell line BT483
  GI50: 72.4 nM
[2]; [8]
  GI50: 61.7 nM
[2]; CAMA-1, cell line CAMA1
  GI50: 61.7 nM
[2]; [9]
  GI50: 35.5 nM
[2]; HCC38, cell line HCC38
  GI50: 35.5 nM
[2]; [10]
  GI50: 77.6 nM
[2]; HCC70, cell line HCC70
  GI50: 77.6 nM
[2]; [11]
  GI50: 83.2 nM
[2]; HCC1143, cell line HCC1143
  GI50: 83.2 nM
[2]; [12]
  GI50: 174 nM
[2]; HCC1187, cell line HCC1187
  GI50: 174 nM
[2]; [13]
  GI50: 58.9 nM
[2]; HCC1419, cell line HCC1419
  GI50: 58.9 nM
[2]; [14]
  GI50: 135 nM
[2]; HCC1428, cell line HCC1428
  GI50: 135 nM
[2]; [15]
  GI50: 162 nM
[2]; HCC1500, cell line HCC1500
  GI50: 162 nM
[2]; [16]
  GI50: 151 nM
[2]; HCC1806, cell line HCC1806
  GI50: 151 nM
[2]; [17]
  GI50: 191 nM
[2]; HCC1937, cell line HCC1937
  GI50: 191 nM
[2]; [18]
  GI50: 372 nM
[2]; HCC1954, cell line HCC1954
  GI50: 372 nM
[2]; [19]
  GI50: 69.2 nM
[2]; [20]
  GI50: 295 nM
[2]; [21]
  GI50: 79.4 nM
[2]; MCF7, cell line MCF7
  GI50: 79.4 nM
[2]; [22]
  GI50: 66.1 nM
[2]; [23]
  GI50: 389 nM
[2]; [24]
  GI50: 50.1 nM
[2]; MDA-MB-361, cell line MDAMB361
  GI50: 50.1 nM
[2]; [25]
  GI50: 39.8 nM
[2]; MDA-MB-415, cell line MDAMB415
  GI50: 39.8 nM
[2]; [26]
  GI50: 251 nM
[2]; MDA-MB-436, cell line MDAMB436
  GI50: 251 nM
[2]; [27]
  GI50: 49 nM
[2]; MDA-MB-453, cell line MDAMB453
  GI50: 49 nM
[2]; [28]
  GI50: 234 nM
[2]; MDA-MB-468, cell line MDAMB468
  GI50: 234 nM
[2]; [29]
  GI50: 55 nM
[2]; SK-BR-3, cell line SKBR3
  GI50: 55 nM
[2]; [30]
  GI50: 170 nM
[2]; SUM52PE, cell line SUM52PE
  GI50: 170 nM
[2]; [31]
  GI50: 316 nM
[2]; SUM149PT, cell line SUM149PT
  GI50: 316 nM
[2]; [32]
  GI50: 77.6 nM
[2]; SUM185PE, cell line SUM185PE
  GI50: 77.6 nM
[2]; [33]
  GI50: 251 nM
[2]; [34]
  GI50: 132 nM
[2]; SUM-159-PT, cell line SUM159PT
  GI50: 132 nM
[2]; [35]
  GI50: 151 nM
[2]; T47D, cell line T47D
  GI50: 151 nM
[2]; [36]
  GI50: 129 nM
[2]; UACC-812, cell line UACC812
  GI50: 129 nM
[2]; [37]
  GI50: 195 nM
[2]; ZR-75-1, cell line ZR751
  GI50: 195 nM
[2]; [38]
  GI50: 83.2 nM
[2]; ZR-75B, cell line ZR75B
  GI50: 83.2 nM
[2]; cell line 600MPE
  GI50: 186 nM
[2]; cell line HCC2185
  GI50: 69.2 nM
[2]; cell line HCC3153
  GI50: 295 nM
[2]; cell line MDAMB134V
  GI50: 66.1 nM
[2]; cell line MDAMB175V
  GI50: 389 nM
[2]; cell line SUM1315MO
  GI50: 251 nM

## CO[C@H]1C[C@@H]2CC[C@@H](C)[C@@](O)(O2)C(=O)C(=O)N2CCCC[C@H]2C(=O)O[C@H]([C@H](C)C[C@@H]2CC[C@@H](OC(=O)C(C)(CO)CO)[C@H](OC)C2)CC(=O)[C@H](C)/C=C(\C)[C@@H](O)[C@@H](OC)C(=O)[C@H](C)C[C@H](C)/C=C/C=C/C=C/1C [Temsirolimus]
[1]
  Subtype specificity: Luminal/ERBB2AMP
[2]; [3]
  GI50: 18200 nM
[2]; [4]
  GI50: 100 nM
[2]; AU565, cell line AU565
  GI50: 100 nM
[2]; [5]
  GI50: 776 nM
[2]; BT-20, cell line BT20
  GI50: 776 nM
[2]; [6]
  GI50: 13.5 nM
[2]; BT-474, cell line BT474
  GI50: 13.5 nM
[2]; [7]
  GI50: 66100 nM
[2]; BT-483, cell line BT483
  GI50: 66100 nM
[2]; [8]
  GI50: 43.7 nM
[2]; CAMA-1, cell line CAMA1
  GI50: 43.7 nM
[2]; [9]
  GI50: 389 nM
[2]; HCC38, cell line HCC38
  GI50: 389 nM
[2]; [10]
  GI50: 407 nM
[2]; HCC70, cell line HCC70
  GI50: 407 nM
[2]; [11]
  GI50: 1580 nM
[2]; HCC1143, cell line HCC1143
  GI50: 1580 nM
[2]; [12]
  GI50: 794 nM
[2]; HCC1187, cell line HCC1187
  GI50: 794 nM
[2]; HCC1395, HCC1395 cell line, censored GI50 values
  GI50: 12600 nM
[2]; HCC1395, cell line HCC1395
  GI50: 12600 nM
[2]; [13]
  GI50: 52.5 nM
[2]; HCC1419, cell line HCC1419
  GI50: 52.5 nM
[2]; [14]
  GI50: 6170 nM
[2]; HCC1428, cell line HCC1428
  GI50: 6170 nM
[2]; [15]
  GI50: 24500 nM
[2]; HCC1500, cell line HCC1500
  GI50: 24500 nM
[2]; [16]
  GI50: 20400 nM
[2]; HCC1806, cell line HCC1806
  GI50: 20400 nM
[2]; [17]
  GI50: 437 nM
[2]; HCC1937, cell line HCC1937
  GI50: 437 nM
[2]; [18]
  GI50: 219 nM
[2]; HCC1954, cell line HCC1954
  GI50: 219 nM
[2]; [19]
  GI50: 13.2 nM
[2]; [20]
  GI50: 20000 nM
[2]; LY2 cell line, censored GI50 values
  GI50: 209 nM
[2]; [21]
  GI50: 1550 nM
[2]; MCF7, cell line MCF7
  GI50: 1550 nM
[2]; [22]
  GI50: 166 nM
[2]; [23]
  GI50: 2290 nM
[2]; [24]
  GI50: 251 nM
[2]; [25]
  GI50: 75.9 nM
[2]; [26]
  GI50: 53700 nM
[2]; [27]
  GI50: 100 nM
[2]; [28]
  GI50: 5620 nM
[2]; [29]
  GI50: 53.7 nM
[2]; [30]
  GI50: 0.417 nM
[2]; [31]
  GI50: 6170 nM
[2]; [32]
  GI50: 1.1 nM
[2]; [33]
  GI50: 1120 nM
[2]; [34]
  GI50: 229 nM
[2]; [35]
  GI50: 1410 nM
[2]; [36]
  GI50: 575 nM
[2]; [37]
  GI50: 66100 nM
[2]; [38]
  GI50: 107 nM
[2]; cell line 600MPE
  GI50: 18200 nM
[2]; cell line HCC2185
  GI50: 13.2 nM
[2]; cell line HCC3153
  GI50: 20000 nM
[2]; cell line LY2
  GI50: 209 nM
